From ChEMBL document CHEMBL1201862, “PubChem BioAssay data set” (2004)
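Exposure lasted 48 hours, with cells grown in 96-well plates and compounds tested at five concentrations. At the GI50, growth is halved.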 Active and inactive are the calls of the source. No stated cut-off is given here; in the data, active = GI50 up to about 1.1 µM and inactive = higher.

Assays:
Experiment in all cases: NCI anticancer screen, dose series, 48 h
NCI-H460 = test system: NCI-H460
OVCAR-8 = test system: OVCAR-8
KM-20L2 = test system: KM-20L2
CAKI-1 = test system: CAKI-1
SNB-19 = test system: SNB-19
SK-MEL-28 = test system: SK-MEL-28
IGROV-1 = test system: IGROV-1
A549 = test system: A549
COLO 205 = test system: COLO 205
SK-MEL-5 = test system: SK-MEL-5
NCI-H226 = test system: NCI-H226
CCRF-CEM = test system: CCRF-CEM
MDA-N = test system: MDA-N
PC-3 = test system: PC-3
MDA-MB-435 = test system: MDA-MB-435
MCF7 = test system: MCF7
RXF 393 = test system: RXF 393
BT-549 = test system: BT-549
MDA-MB-231 = test system: MDA-MB-231
HOP-92 = test system: HOP-92

SMILES	GI50 (NCI-H460)	GI50 (OVCAR-8)	GI50 (KM-20L2)	GI50 (CAKI-1)	GI50 (SNB-19)	GI50 (SK-MEL-28)	GI50 (IGROV-1)	GI50 (A549)	GI50 (COLO 205)	GI50 (SK-MEL-5)	GI50 (NCI-H226)	GI50 (CCRF-CEM)	GI50 (MDA-N)	GI50 (PC-3)	GI50 (MDA-MB-435)	GI50 (MCF7)	GI50 (RXF 393)	GI50 (BT-549)	GI50 (MDA-MB-231)	GI50 (HOP-92)
O=c1ccc2ccccc2c2ccccc12	3.98 µM (inactive)	2.34 µM (inactive)	1.94 µM (inactive)	2.81 µM (inactive)	2.82 µM (inactive)	5.46 µM (inactive)	6.12 µM (inactive)	13.8 µM (inactive)	4.6 µM (inactive)	2.9 µM (inactive)	4.27 µM (inactive)	3.2 µM (inactive)	–	–	–	–	–	–	–	–
CCOC(=O)[C@@]12C[C@](/C=C/OC)(O[Si](C)(C)C)[C@@]13c1cc(OC)c(OC)cc1CCN3C(=O)C2=O	> 100 µM (inactive)	> 100 µM (inactive)	–	> 100 µM (inactive)	> 100 µM (inactive)	> 100 µM (inactive)	> 100 µM (inactive)	> 100 µM (inactive)	> 100 µM (inactive)	> 100 µM (inactive)	> 100 µM (inactive)	> 100 µM (inactive)	> 100 µM (inactive)	> 100 µM (inactive)	> 100 µM (inactive)	> 100 µM (inactive)	> 100 µM (inactive)	> 100 µM (inactive)	> 100 µM (inactive)	> 100 µM (inactive)
CN(O)C(=O)c1ccc(OCc2cccc(Cl)c2)cc1	9.4 µM (inactive)	19 µM (inactive)	–	18.5 µM (inactive)	24.6 µM (inactive)	40.7 µM (inactive)	16.7 µM (inactive)	16 µM (inactive)	23.6 µM (inactive)	27.8 µM (inactive)	19.5 µM (inactive)	5.12 µM (inactive)	35.8 µM (inactive)	24.5 µM (inactive)	23.6 µM (inactive)	32.4 µM (inactive)	25.6 µM (inactive)	22.8 µM (inactive)	> 81.1 µM (inactive)	58.5 µM (inactive)
N#Cc1cccc(C2ON=C(c3ccc([N+](=O)[O-])cc3)N2C23CC4CC(CC(C4)C2)C3)c1 (configuration not stated)	> 100 µM (inactive)	> 100 µM (inactive)	–	11.7 µM (inactive)	> 100 µM (inactive)	> 100 µM (inactive)	> 100 µM (inactive)	27.4 µM (inactive)	> 100 µM (inactive)	43.6 µM (inactive)	> 100 µM (inactive)	> 100 µM (inactive)	> 100 µM (inactive)	5.2 µM (inactive)	> 100 µM (inactive)	34.4 µM (inactive)	13.1 µM (inactive)	82.6 µM (inactive)	63.7 µM (inactive)	69.2 µM (inactive)
O=C(/C=C/c1ccccc1)c1ccccc1 [CHALCONE]	> 9.55 µM (inactive)	> 10 µM (inactive)	–	> 10 µM (inactive)	> 10 µM (inactive)	> 10 µM (inactive)	> 10 µM (inactive)	> 10 µM (inactive)	> 10 µM (inactive)	> 10 µM (inactive)	> 10 µM (inactive)	> 4.83 µM (inactive)	> 10 µM (inactive)	> 10 µM (inactive)	> 8.13 µM (inactive)	2.7 µM (inactive)	> 10 µM (inactive)	> 10 µM (inactive)	> 10 µM (inactive)	> 10 µM (inactive)
O=C1c2scnc2-c2nccc3c2c1nc1ccccc13 [KUANONIAMINE A]	0.372 µM (active)	0.226 µM (active)	–	1.63 µM (inactive)	0.389 µM (active)	1.65 µM (inactive)	0.774 µM (active)	1.51 µM (inactive)	1.31 µM (inactive)	0.0412 µM (active)	1.44 µM (inactive)	0.416 µM (active)	0.196 µM (active)	0.664 µM (active)	0.191 µM (active)	0.299 µM (active)	1.77 µM (inactive)	1.25 µM (inactive)	0.318 µM (active)	1.88 µM (inactive)
